Data as given in ChEMBL document CHEMBL5131499, “Design, synthesis and glycosidase inhibition of C-4 branched LAB and DAB derivatives” (Eur J Med Chem, 2022).

Test system: Prunus dulcis
Assay: Inhibition of almond beta-glucosidase assessed as release of p-nitrophenol at 1000 uM using p-nitrophenyl glycoside as substrate by spectrometric assay relative to control

Row | Structure (SMILES) | inhibition [%]
1 | OC[C@]1(c2cccc(F)c2)NC[C@H](O)[C@H]1O | 0
2 | COc1cccc([C@]2(CO)NC[C@@H](O)[C@@H]2O)c1 | 7.8
3 | OC[C@@H]1NC[C@H](O)[C@H]1O | < 50

Test system: Helix pomatia
Assay: Inhibition of snail beta-mannosidase assessed as release of p-nitrophenol at 1000 uM using p-nitrophenyl glycoside as substrate by spectrometric assay relative control

Row | Structure (SMILES) | inhibition [%]
4 | OC[C@]1(c2cccc(F)c2)NC[C@H](O)[C@H]1O | 0
5 | COc1cccc([C@]2(CO)NC[C@@H](O)[C@@H]2O)c1 | 0

Test system: Escherichia coli
Assay: Inhibition of Escherichia coli beta-glucuronidase assessed as release of p-nitrophenol at 1000 uM using p-nitrophenyl glycoside as substrate by spectrometric assay relative to control

Row | Structure (SMILES) | inhibition [%]
6 | OC[C@]1(c2cccc(F)c2)NC[C@H](O)[C@H]1O | 0
7 | COc1cccc([C@]2(CO)NC[C@@H](O)[C@@H]2O)c1 | 0

Test system: Aspergillus niger
Assay: Inhibition of Aspergillus niger amyloglucosidase assessed as release of p-nitrophenol at 1000 uM using p-nitrophenyl glycoside as substrate by spectrometric assay relative to control

Row | Structure (SMILES) | inhibition [%]
8 | OC[C@]1(c2cccc(F)c2)NC[C@H](O)[C@H]1O | 1.4
9 | COc1cccc([C@]2(CO)NC[C@@H](O)[C@@H]2O)c1 | 8.3

Biological target: Alpha-galactosidase (Coffea arabica) (UniProt Q42656)
Sequence (Q42656 16-378 limits assumed): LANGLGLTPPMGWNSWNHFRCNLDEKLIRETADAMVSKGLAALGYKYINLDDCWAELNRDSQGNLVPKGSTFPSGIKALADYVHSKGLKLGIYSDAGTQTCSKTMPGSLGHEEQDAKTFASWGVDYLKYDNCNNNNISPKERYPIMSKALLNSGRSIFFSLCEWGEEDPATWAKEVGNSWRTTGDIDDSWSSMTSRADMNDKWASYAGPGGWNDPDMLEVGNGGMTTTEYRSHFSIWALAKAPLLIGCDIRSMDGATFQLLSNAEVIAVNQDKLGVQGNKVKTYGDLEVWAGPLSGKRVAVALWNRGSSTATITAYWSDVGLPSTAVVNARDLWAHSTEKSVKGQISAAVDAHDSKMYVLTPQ
Assay: Inhibition of coffee beans alpha-galactosidase assessed as release of p-nitrophenol at 1000 uM using p-nitrophenyl glycoside as substrate by spectrometric assay relative to control

Row | Structure (SMILES) | inhibition [%]
10 | COc1cccc([C@]2(CO)NC[C@@H](O)[C@@H]2O)c1 | 1.6

Organism: Rattus norvegicus
Assay: Inhibition of rat intestinal alpha-trehalase assessed as release of p-nitrophenol at 1000 uM using p-nitrophenyl glycoside as substrate by spectrometric assay relative to control

Row | Structure (SMILES) | inhibition [%]
11 | OC[C@]1(c2cccc(F)c2)NC[C@H](O)[C@H]1O | 10
12 | COc1cccc([C@]2(CO)NC[C@@H](O)[C@@H]2O)c1 | 0

Biological target: Lysosomal alpha-glucosidase (Homo sapiens, UniProt P10253)
Assay: Inhibition of human lysosomal alpha glucosidase assessed as release of p-nitrophenol using p-nitrophenyl glycoside as substrate by spectrometric assay

Row | Structure (SMILES) | IC50 [µM]
13 | OC[C@]1(c2cccc(F)c2)NC[C@H](O)[C@H]1O | 491
14 | COc1cccc([C@]2(CO)NC[C@@H](O)[C@@H]2O)c1 | 776

Biological target: Sucrase-isomaltase, intestinal (Rattus norvegicus, UniProt P23739)
Sequence (P23739 1-1013 limits assumed): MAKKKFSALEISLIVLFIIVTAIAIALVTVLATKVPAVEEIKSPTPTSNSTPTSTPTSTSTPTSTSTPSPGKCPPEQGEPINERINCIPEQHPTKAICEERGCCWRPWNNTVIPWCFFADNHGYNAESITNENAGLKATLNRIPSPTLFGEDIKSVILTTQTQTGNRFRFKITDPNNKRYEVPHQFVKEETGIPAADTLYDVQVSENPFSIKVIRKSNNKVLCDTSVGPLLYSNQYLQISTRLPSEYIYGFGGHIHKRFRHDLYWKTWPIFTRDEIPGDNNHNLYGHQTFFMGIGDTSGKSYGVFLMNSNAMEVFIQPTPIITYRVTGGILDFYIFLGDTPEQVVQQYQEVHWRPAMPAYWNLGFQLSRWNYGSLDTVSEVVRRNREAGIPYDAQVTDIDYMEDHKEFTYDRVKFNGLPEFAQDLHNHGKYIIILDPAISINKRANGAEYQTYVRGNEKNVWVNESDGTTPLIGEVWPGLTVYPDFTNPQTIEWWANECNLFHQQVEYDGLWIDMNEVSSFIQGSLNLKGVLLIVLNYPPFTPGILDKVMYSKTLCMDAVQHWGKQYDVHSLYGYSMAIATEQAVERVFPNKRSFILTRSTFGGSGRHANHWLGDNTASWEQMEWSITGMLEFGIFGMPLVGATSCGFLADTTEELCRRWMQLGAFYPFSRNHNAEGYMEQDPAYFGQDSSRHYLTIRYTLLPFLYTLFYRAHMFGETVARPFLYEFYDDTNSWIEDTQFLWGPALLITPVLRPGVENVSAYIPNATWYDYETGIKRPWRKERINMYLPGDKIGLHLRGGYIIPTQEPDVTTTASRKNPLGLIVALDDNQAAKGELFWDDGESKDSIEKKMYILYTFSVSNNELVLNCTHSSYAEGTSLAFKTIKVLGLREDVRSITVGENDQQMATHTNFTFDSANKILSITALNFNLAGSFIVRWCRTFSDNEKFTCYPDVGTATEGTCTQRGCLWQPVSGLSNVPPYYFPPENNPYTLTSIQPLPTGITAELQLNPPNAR
Sequence (P23739 1014-1841 limits assumed): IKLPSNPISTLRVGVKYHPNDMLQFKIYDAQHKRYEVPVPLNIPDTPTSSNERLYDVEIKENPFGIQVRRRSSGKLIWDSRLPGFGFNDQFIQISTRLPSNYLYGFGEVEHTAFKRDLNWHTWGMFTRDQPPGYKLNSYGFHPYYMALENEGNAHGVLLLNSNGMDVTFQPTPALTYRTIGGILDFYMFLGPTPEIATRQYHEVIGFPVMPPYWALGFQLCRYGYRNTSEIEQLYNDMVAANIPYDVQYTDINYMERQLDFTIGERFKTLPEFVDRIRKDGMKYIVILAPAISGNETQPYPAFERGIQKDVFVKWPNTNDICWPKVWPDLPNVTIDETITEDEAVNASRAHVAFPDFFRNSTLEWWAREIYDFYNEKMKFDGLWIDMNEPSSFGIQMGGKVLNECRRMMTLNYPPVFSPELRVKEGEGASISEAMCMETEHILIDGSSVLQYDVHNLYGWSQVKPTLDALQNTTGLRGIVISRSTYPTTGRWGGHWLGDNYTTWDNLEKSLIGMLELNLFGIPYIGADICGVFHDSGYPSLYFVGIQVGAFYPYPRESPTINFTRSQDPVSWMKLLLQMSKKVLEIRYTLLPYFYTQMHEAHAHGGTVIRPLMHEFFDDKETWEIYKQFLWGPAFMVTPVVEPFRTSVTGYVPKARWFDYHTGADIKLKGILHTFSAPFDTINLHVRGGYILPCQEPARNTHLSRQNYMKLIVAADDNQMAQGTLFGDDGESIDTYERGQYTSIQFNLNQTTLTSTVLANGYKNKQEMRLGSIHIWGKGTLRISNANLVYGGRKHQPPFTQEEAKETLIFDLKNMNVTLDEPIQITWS
Assay: Inhibition of rat intestinal sucrase assessed as release of p-nitrophenol using p-nitrophenyl glycoside as substrate by spectrometric assay

Row | Structure (SMILES) | IC50 [µM]
15 | OC[C@]1(c2cccc(F)c2)NC[C@H](O)[C@H]1O | 0.95
16 | COc1cccc([C@]2(CO)NC[C@@H](O)[C@@H]2O)c1 | 1.7

Biological target: T1, Alpha-mannosidase (Canavalia ensiformis) (UniProt C0HJB3)
T1 sequence (whole entry): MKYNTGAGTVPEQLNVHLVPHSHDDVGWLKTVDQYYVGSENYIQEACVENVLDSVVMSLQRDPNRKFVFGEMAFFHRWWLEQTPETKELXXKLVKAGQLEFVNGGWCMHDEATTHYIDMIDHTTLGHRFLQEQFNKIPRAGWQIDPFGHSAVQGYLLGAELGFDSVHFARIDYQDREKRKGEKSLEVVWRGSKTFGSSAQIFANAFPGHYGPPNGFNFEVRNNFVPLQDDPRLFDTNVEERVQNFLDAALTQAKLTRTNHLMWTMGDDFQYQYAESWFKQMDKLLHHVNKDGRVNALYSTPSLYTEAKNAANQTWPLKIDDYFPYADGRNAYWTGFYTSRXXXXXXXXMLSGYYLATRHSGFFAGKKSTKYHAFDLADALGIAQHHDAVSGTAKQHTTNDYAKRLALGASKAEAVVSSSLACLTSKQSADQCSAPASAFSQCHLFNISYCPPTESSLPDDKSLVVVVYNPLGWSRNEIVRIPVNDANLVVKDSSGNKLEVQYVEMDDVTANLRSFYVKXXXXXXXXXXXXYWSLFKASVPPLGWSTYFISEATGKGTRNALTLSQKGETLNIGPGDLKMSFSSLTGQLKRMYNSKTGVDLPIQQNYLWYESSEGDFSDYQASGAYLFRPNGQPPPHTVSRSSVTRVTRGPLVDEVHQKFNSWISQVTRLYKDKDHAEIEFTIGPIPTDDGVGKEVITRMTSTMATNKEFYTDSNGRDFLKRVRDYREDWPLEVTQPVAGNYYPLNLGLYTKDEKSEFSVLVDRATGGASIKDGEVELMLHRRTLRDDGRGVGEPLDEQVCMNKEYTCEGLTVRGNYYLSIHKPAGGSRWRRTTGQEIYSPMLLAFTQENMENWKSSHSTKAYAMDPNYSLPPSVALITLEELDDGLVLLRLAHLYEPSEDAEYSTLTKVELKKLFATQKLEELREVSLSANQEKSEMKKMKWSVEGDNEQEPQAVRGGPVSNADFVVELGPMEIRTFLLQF
Assay: Inhibition of jack bean alpha-mannosidase assessed as release of p-nitrophenol at 1000 uM using p-nitrophenyl glycoside as substrate by spectrometric assay relative to control

Row | Structure (SMILES) | inhibition [%]
17 | OC[C@]1(c2cccc(F)c2)NC[C@H](O)[C@H]1O | 0
18 | COc1cccc([C@]2(CO)NC[C@@H](O)[C@@H]2O)c1 | 0

Organism: Bos taurus
Assay: Inhibition of bovine liver beta-galactosidase assessed as release of p-nitrophenol at 1000 uM using p-nitrophenyl glycoside as substrate by spectrometric assay relative to control

Row | Structure (SMILES) | inhibition [%]
19 | OC[C@]1(c2cccc(F)c2)NC[C@H](O)[C@H]1O | 16.4
20 | COc1cccc([C@]2(CO)NC[C@@H](O)[C@@H]2O)c1 | 38.9

Organism: Bos taurus
Assay: Inhibition of bovine liver beta-glucronidase assessed as release of p-nitrophenol at 1000 uM using p-nitrophenyl glycoside as substrate by spectrometric assay relative to control

Row | Structure (SMILES) | inhibition [%]
21 | OC[C@]1(c2cccc(F)c2)NC[C@H](O)[C@H]1O | 19.4
22 | COc1cccc([C@]2(CO)NC[C@@H](O)[C@@H]2O)c1 | 10.7

Biological target: not listed separately
Assay: Inhibition of rice alpha-glucosidase assessed as release of p-nitrophenol using p-nitrophenyl glycoside as substrate by spectrometric assay
Parameters: species or system Oryza sativa

Row | Structure (SMILES) | IC50 [µM]
23 | OC[C@]1(c2cccc(F)c2)NC[C@H](O)[C@H]1O | 817
24 | COc1cccc([C@]2(CO)NC[C@@H](O)[C@@H]2O)c1 | 758

Organism: Bos taurus
Assay: Inhibition of bovine liver beta-glucosidase assessed as release of p-nitrophenol at 1000 uM using p-nitrophenyl glycoside as substrate by spectrometric assay relative to control

Row | Structure (SMILES) | inhibition [%]
25 | OC[C@]1(c2cccc(F)c2)NC[C@H](O)[C@H]1O | 11.3
26 | COc1cccc([C@]2(CO)NC[C@@H](O)[C@@H]2O)c1 | 30
27 | OC[C@@H]1NC[C@H](O)[C@H]1O | < 50

Biological target: not listed separately
Assay: Inhibition of yeast alpha-glucosidase assessed as release of p-nitrophenol using p-nitrophenyl glycoside as substrate by spectrometric assay
Parameters: species or system Saccharomyces cerevisiae

Row | Structure (SMILES) | IC50 [µM]
28 | OC[C@]1(c2cccc(F)c2)NC[C@H](O)[C@H]1O | 60
29 | COc1cccc([C@]2(CO)NC[C@@H](O)[C@@H]2O)c1 | 9.8

Biological target: T2, Tissue alpha-L-fucosidase (Bos taurus) (UniProt Q2KIM0)
T2 sequence (whole entry): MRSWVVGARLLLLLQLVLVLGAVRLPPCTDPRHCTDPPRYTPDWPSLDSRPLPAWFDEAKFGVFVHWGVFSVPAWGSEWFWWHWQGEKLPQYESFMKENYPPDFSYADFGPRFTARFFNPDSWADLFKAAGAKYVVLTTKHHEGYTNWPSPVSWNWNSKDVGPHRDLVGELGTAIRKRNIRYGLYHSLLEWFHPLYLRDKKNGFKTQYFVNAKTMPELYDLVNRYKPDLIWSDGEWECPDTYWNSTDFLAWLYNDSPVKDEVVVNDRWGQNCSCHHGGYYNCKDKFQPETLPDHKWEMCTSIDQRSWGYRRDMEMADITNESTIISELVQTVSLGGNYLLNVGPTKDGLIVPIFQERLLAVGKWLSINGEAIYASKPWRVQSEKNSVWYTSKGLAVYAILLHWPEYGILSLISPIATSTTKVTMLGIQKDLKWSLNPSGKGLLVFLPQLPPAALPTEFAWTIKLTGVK
Assay: Inhibition of bovine kidney alpha-L-fucosidase assessed as release of p-nitrophenol at 1000 uM using p-nitrophenyl glycoside as substrate by spectrometric assay relative to control

Row | Structure (SMILES) | inhibition [%]
30 | OC[C@]1(c2cccc(F)c2)NC[C@H](O)[C@H]1O | 0
31 | COc1cccc([C@]2(CO)NC[C@@H](O)[C@@H]2O)c1 | 0

Organism: Sus scrofa
Assay: Inhibition of porcine kidney alpha-trehalase assessed as release of p-nitrophenol at 1000 uM using p-nitrophenyl glycoside as substrate by spectrometric assay relative to control

Row | Structure (SMILES) | inhibition [%]
32 | OC[C@]1(c2cccc(F)c2)NC[C@H](O)[C@H]1O | 8.3
33 | COc1cccc([C@]2(CO)NC[C@@H](O)[C@@H]2O)c1 | 12.9

Test system: Penicillium decumbens
Assay: Inhibition of Penicillium decumbens alpha-L-rhamnosidase assessed as release of p-nitrophenol at 1000 uM using p-nitrophenyl glycoside as substrate by spectrometric assay relative to control

Row | Structure (SMILES) | inhibition [%]
34 | OC[C@]1(c2cccc(F)c2)NC[C@H](O)[C@H]1O | 0
35 | COc1cccc([C@]2(CO)NC[C@@H](O)[C@@H]2O)c1 | 0
